Data taken from US7517884B2 (Kalypsys Inc., priority 1998, dated 2009).

Experiments:
Format in all cases: cell-based, murine and human
Conditions in all cases: GAL4-PPAR LBD chimera
[1] = biological target: T1, PPAR-alpha (UniProt Q07869); test: PPAR-alpha transactivation assay (GAL4 chimera, luciferase reporter) in CV-1 cells
T1 sequence (Q07869 1-468): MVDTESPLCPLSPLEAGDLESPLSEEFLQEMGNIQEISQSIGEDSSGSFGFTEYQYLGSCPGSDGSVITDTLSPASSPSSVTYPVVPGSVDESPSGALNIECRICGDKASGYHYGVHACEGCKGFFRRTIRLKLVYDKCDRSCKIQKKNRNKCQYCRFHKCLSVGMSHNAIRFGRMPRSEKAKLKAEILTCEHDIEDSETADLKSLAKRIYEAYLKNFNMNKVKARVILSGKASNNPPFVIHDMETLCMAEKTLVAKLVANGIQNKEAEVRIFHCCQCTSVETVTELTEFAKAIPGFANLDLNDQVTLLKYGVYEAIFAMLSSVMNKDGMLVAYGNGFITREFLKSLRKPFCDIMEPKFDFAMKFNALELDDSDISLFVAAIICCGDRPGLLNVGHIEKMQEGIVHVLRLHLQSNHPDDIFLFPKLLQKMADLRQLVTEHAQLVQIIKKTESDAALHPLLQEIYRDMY
From the text: (§1) Compounds may be screened for functional potency in transient transfection assays in CV-1 cells for their ability to activate the PPAR subtypes (transactivation assay). A previously established chimeric receptor system was utilized to allow comparison of the relative transcriptional activity of the receptor subtypes on the same synthetic response element and to prevent endogenous receptor activation from complicating the interpretation of results. See, for example, Lehmann, J. M.; Moore, L. B.; Smith-Oliver, T. A; Wilkinson, W. O.; Willson, T. M.; Kliewer, S. A., An antidiabetic thiazolidinedione is a high affinity ligand for peroxisome proliferator-activated receptor […], J. Biol. Chem., 1995, 270, 12953-6. The ligand binding domains for murine and human PPAR-alpha, PPAR-gamma, and PPAR-delta are each fused to the yeast transcription factor GAL4 DNA binding domain. CV-1 cells were transiently transfected with expression vectors for the respective PPAR chimera along with a reporter construct containing four or five copies of the GAL4 DNA binding site driving expression of luciferase. After 8-16 h, the cells are replated into multi-well assay plates and the media is exchanged to phenol-red free DME medium supplemented with 5% delipidated calf serum. 4 hours after replating, cells were treated with either compounds or 1% DMSO for 20-24 hours. Luciferase activity was then assayed with Britelite (Perkin Elmer) following the manufacturer's protocol and measured with either the Perkin Elmer Viewlux or Molecular Devices Acquest (see, for example, Kliewer, S. A., et. al. Cell 1995, 83, 813-819). Rosiglitazone is used as a positive control in the PPARγ assay. Wy-14643 and GW7647 are used as positive controls in the PPARα assay. GW501516 is used as the positive control in the PPARδ assay.
(§2) Compounds of Examples 1-141 were assayed to measure their biological activity with respect to their EC50 values for modulating PPAR-alpha, PPAR-gamma, and PPAR-delta as set forth in Table 1.

[2] = biological target: T2, PPAR-gamma (UniProt P37231); test: PPAR-gamma transactivation assay (GAL4 chimera, luciferase reporter) in CV-1 cells
T2 sequence (P37231 1-505): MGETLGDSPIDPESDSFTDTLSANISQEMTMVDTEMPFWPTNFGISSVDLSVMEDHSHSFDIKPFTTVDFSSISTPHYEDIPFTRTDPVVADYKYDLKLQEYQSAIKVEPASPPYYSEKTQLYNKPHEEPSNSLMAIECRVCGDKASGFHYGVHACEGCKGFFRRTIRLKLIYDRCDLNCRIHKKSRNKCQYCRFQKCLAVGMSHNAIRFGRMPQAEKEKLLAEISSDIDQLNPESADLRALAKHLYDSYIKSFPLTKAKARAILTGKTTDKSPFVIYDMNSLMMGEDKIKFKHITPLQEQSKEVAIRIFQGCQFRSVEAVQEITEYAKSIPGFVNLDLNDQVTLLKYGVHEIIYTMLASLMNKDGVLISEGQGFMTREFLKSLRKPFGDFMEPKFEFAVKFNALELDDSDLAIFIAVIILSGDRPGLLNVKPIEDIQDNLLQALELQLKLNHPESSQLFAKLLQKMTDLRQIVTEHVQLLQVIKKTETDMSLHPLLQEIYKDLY
From the text: as §1, §2

[3] = biological target: T3, PPAR-delta (UniProt Q03181); test: PPAR-delta transactivation assay (GAL4 chimera, luciferase reporter) in CV-1 cells
T3 sequence (Q03181 1-441): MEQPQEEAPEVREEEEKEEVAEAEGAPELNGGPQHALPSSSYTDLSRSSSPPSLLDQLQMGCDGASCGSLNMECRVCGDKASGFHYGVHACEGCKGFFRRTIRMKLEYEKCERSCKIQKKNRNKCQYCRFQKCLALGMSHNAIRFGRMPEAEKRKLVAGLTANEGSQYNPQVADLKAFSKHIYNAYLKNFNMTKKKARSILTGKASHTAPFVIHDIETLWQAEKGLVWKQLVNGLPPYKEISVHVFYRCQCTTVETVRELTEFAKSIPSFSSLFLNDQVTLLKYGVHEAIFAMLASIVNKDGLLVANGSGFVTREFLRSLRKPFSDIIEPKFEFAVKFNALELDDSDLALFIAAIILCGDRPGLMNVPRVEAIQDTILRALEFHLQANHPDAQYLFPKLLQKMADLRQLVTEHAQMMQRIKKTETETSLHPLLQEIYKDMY
From the text: as §1, §2

Structure (SMILES)	EC50 [1]	EC50 [2]	EC50 [3]
C[C@@H]1CN(c2ccc(C(F)(F)F)cn2)C[C@H](C)N1S(=O)(=O)c1ccc2c(c1)C(C(=O)O)CC2 (stereo partly drawn) [Example 27, 6-[cis-2,6-dimethyl-4-(5-trifluoromethyl-pyridin-2-yl)-piperazine-1-sulfonyl]-indan-1-carboxylic acid]	5 to 100 µM	5 to 100 µM	< 5 µM
C[C@@H]1CN(c2ccc(C(F)(F)F)cn2)C[C@H](C)N1S(=O)(=O)c1ccc2c(c1)C(C)(C(=O)O)CC2 (stereo partly drawn) [Example 28, 6-[cis-2,6-dimethyl-4-(5-trifluoromethyl-pyridin-2-yl)-piperazine-1-sulfonyl]-1-methyl-indan-1-carboxylic acid]	> 100 µM	5 to 100 µM	< 5 µM
COc1cc2c(cc1S(=O)(=O)N1CCN(c3ccc(C(F)(F)F)cc3)CC1)CCC2CC(=O)O (stereo not drawn) [Example 29, {6-methoxy-5-[4-(4-trifluoromethyl-phenyl)-piperazine-1-sulfonyl]-indan-1-yl}-acetic acid]	5 to 100 µM	5 to 100 µM	5 to 100 µM
COc1cc2c(cc1S(=O)(=O)N1CCN(c3ccc(Cl)c(Cl)c3)CC1)CCC2CC(=O)O (stereo not drawn) [Example 30, {5-[4-(3,4-dichloro-phenyl)-piperazine-1-sulfonyl]-6-methoxy-indan-1-yl}-acetic acid]	5 to 100 µM	5 to 100 µM	5 to 100 µM
O=C(O)Cn1ccc2cc(S(=O)(=O)N3CCN(c4ccc(C(F)(F)F)cc4)CC3)ccc21 [Example 31, {5-[4-(4-Trifluoromethyl-phenyl)-piperazine-1-sulfonyl]-indol-1-yl}-acetic acid]	> 100 µM	> 100 µM	5 to 100 µM
O=C(O)Cn1ccc2cc(Br)c(S(=O)(=O)N3CCN(c4ccc(C(F)(F)F)cc4)CC3)cc21 [Example 32, {5-Bromo-6-[4-(4-trifluoromethyl-phenyl)-piperazine-1-sulfonyl]-indol-1-yl}-acetic acid]	> 100 µM	5 to 100 µM	< 5 µM
O=C(O)Cn1ccc2cc(Br)c(S(=O)(=O)N3CCN(c4ccc(C(F)(F)F)cn4)CC3)cc21 [Example 33, {5-Bromo-6-[4-(5-trifluoromethyl-pyridin-2-yl)-piperazine-1-sulfonyl]-indol-1-yl}-acetic acid]	> 100 µM	5 to 100 µM	< 5 µM
O=C(O)Cn1ccc2ccc(S(=O)(=O)N3CCN(c4ccc(C(F)(F)F)cc4)CC3)cc21 [Example 34, {6-[4-(4-Trifluoromethyl-phenyl)-piperazine-1-sulfonyl]-indol-1-yl}-acetic acid]	> 100 µM	5 to 100 µM	< 5 µM
O=C(O)Cn1ccc2ccc(S(=O)(=O)N3CCN(c4ccc(C(F)(F)F)cn4)CC3)cc21 [Example 35, {6-[4-(5-trifluoromethyl-pyridin-2-yl)-piperazine-1-sulfonyl]-indol-1-yl}-acetic acid]	5 to 100 µM	5 to 100 µM	< 5 µM
COc1ccc2c(CC(=O)O)csc2c1S(=O)(=O)N1CCN(c2ccc(C(F)(F)F)cn2)CC1 [Example 36, {6-Methoxy-7-[4-(5-trifluoromethyl-pyridin-2-yl)-piperazine-1-sulfonyl]-benzo[b]thiophen-3-yl}-acetic acid]	> 100 µM	5 to 100 µM	> 100 µM

The remaining lines, values ahead:

EC50 [1]	EC50 [2]	EC50 [3]	Structure (SMILES)
5 to 100 µM	< 5 µM	< 5 µM	O=C(O)Cc1csc2ccc(S(=O)(=O)N3CCN(c4ccc(C(F)(F)F)cn4)CC3)cc12 [Example 37, {5-[4-(5-Trifluoromethyl-pyridin-2-yl)piperazine-1-sulfonyl]-benzo[b]thiophen-3-yl}-acetic acid]
< 5 µM	< 5 µM	< 5 µM	CC1(C)CN(c2ccc(C(F)(F)F)cn2)CCN1S(=O)(=O)c1ccc2c(c1)C(C(=O)O)CC2 (stereo not drawn) [Example 38, 6-[2,2-Dimethyl-4-(5-trifluoromethyl-pyridin-2-yl)-piperazine-1-sulfonyl]-indan-1-carboxylic acid]
< 5 µM	< 5 µM	< 5 µM	COC(=O)[C@H]1CN(S(=O)(=O)c2ccc3c(c2)C(C(=O)O)CC3)CCN1c1ccc(C(F)(F)F)cn1 (stereo partly drawn) [Example 39, (R)-4-(3-Carboxy-indane-5-sulfonyl)-1-(5-trifluoromethyl-pyridin-2-yl)-piperazine-2-carboxylic acid methyl ester]
< 5 µM	< 5 µM	< 5 µM	COC(=O)[C@@H]1CN(S(=O)(=O)c2ccc3c(c2)C(C(=O)O)CC3)CCN1c1ccc(C(F)(F)F)cn1 (stereo partly drawn) [Example 40, (S)-4-(3-carboxy-indane-5-sulfonyl)-1-(5-trifluoromethyl-pyridin-2-yl)-piperazine-2-carboxylic acid methyl ester]
5 to 100 µM	5 to 100 µM	< 5 µM	O=C(O)Cc1csc2ccc(S(=O)(=O)N3CCN(c4ccc(C(F)(F)F)cc4)CC3)cc12 [Example 41, {5-[4-(4-trifluoromethyl-phenyl)-piperazine-1-sulfonyl]-benzo[b]thiophen-3-yl}-acetic acid]
5 to 100 µM	5 to 100 µM	< 5 µM	CC1CN(c2ccc(C(F)(F)F)cn2)CCN1S(=O)(=O)c1ccc2scc(CC(=O)O)c2c1 (stereo not drawn) [Example 42, {5-[2-methyl-4-(5-trifluoromethyl-pyridin-2-yl)-piperazine-1-sulfonyl]-benzo[b]thiophen-3-yl}-acetic acid]
> 100 µM	5 to 100 µM	< 5 µM	C[C@@H]1CN(c2ccc(C(F)(F)F)cn2)C[C@H](C)N1S(=O)(=O)c1ccc2scc(CC(=O)O)c2c1 [Example 43, {5-[2,6-dimethyl-4-(5-trifluoromethyl-pyridin-2-yl)-piperazine 1-sulfonyl]-benzo[b]thiophen-3-yl}-acetic acid]
> 100 µM	5 to 100 µM	< 5 µM	CC1CN(S(=O)(=O)c2ccc3scc(CC(=O)O)c3c2)C(C)CN1c1ccc(C(F)(F)F)cn1 (stereo not drawn) [Example 44, {5-[2,5-dimethyl-4-(5-trifluoromethyl-pyridin-2-yl)-piperazine-1-sulfonyl]-benzo[b]thiophen-3-yl}-acetic acid]
< 5 µM	< 5 µM	< 5 µM	O=C(O)C1CCc2ccc(S(=O)(=O)N3CCN(c4ccc(C(F)(F)F)cc4F)CC3)cc21 (stereo not drawn) [Example 45, 6-[4-(2-fluoro-4-trifluoromethyl-phenyl)-piperazine-1-sulfonyl]-indan-1-carboxylic acid]
< 5 µM	< 5 µM	< 5 µM	O=C(O)C1CCc2ccc(S(=O)(=O)N3CCN(c4ccc(Cl)c(Cl)c4)CC3)cc21 (stereo not drawn) [Example 46, 6-[4-(3,4-dichloro-phenyl)-piperazine-1-sulfonyl]-indan-1-carboxylic acid]
